The source of these data is PubChem BioAssay (NCI).

Common to all, as to assay: growth of human tumour cells (NCI), 48 h
In assay [1] the test system is MDA-MB-231 breast.
In assay [2] the test system is OVCAR-4 ovarian.
The subject of assay [3] is DU-145 prostate.
Assay [4] deals with UO-31 renal.
In assay [5] the test system is NCI-H460 lung.
The test system of assay [6] is OVCAR-3 ovarian.
The subject of assay [7] is HOP-92 NSCLC.
Assay [8] relates to U251 CNS.
The subject of assay [9] is MALME-3M melanoma.
The test system of assay [10] is UACC-62 melanoma.

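These data come from cells grown in 96-well plates and exposed to compound for 48 hours at five concentrations. GI50 marks 50% less growth. TGI marks complete inhibition of growth.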

As to `CCc1nn2ncccc2c1-c1ccnc(NC2CC2)n1`, the GI50 was above 25 µM in [1]; above 25 µM in [2]; above 25 µM in assay [3]; above 24 µM in [4]; above 25 µM in [5]; above 25 µM in assay [6]. For the same compound, the GI50 in assay [7] is above 6.73 µM; in assay [8] it was above 25 µM; in assay [9], above 25 µM; in [10], above 25 µM. Also, the TGI in [1], in assay [2], in assay [3], in [4], in [5] and in assay [6] was above 25 µM throughout. In addition, the TGI in [7], in assay [8], in assay [9] and in assay [10] was above 25 µM throughout.
On to `C=C(CN1c2ccccc2Sc2ccccc21)c1ccc(C(=O)Nc2ccccc2N)cc1`, for which the GI50 is 20.3 µM in assay [1]; 12 µM in assay [2]; above 100 µM in [3]; 2.03 µM in [4]; 17.7 µM in assay [5]; 8.08 µM in assay [6]. Moreover, the GI50 in assay [7] is above 47.9 µM; in assay [8], above 50.3 µM; in [9] it was above 23 µM; in assay [10] it was 93 µM. Besides, the TGI is above 79.4 µM in [1]; 97.3 µM in assay [2]; above 100 µM in assay [3]; above 100 µM in assay [4]; above 100 µM in assay [5]; above 100 µM in assay [6]. Moreover, the TGI in assay [7], in assay [8], in assay [9] and in [10] was above 100 µM throughout.
Consider `COc1cc2nc(-c3cccc4cccnc34)nc(NC3CCN(Cc4ccccc4)CC3)c2cc1OC`, for which the GI50 was 1.36 µM in assay [1]; 1.11 µM in [2]; 1.28 µM in [3]; 1.43 µM in assay [4]; 0.351 µM in assay [5]; 1.52 µM in [6]. Moreover, the GI50 in [7] is 1.59 µM; in assay [8], 1.05 µM; in assay [9], 1.83 µM; in assay [10] it was 2 µM. For the same compound, the TGI in [1] was 2.75 µM; in [2], 2.71 µM; in [3], 2.59 µM; in assay [4] it was 2.88 µM; in [5], 1.23 µM; in [6] it was 3.08 µM. Moreover, the TGI came out at 3.36 µM in assay [7], 2.55 µM in assay [8], 3.51 µM in [9] and 4.02 µM in assay [10].
As for `CN(C)CCCCCNc1c2ccccc2nc2cccc([N+](=O)[O-])c12`, the TGI in assay [1] stood at 0.00202 µM; in [2], 0.00236 µM; in assay [3] it was 0.00346 µM; in [4], 0.0425 µM; in assay [6], 0.00504 µM; in [7], 0.00895 µM. Also, the TGI was 0.0251 µM in [8], 0.00506 µM in assay [9] and 0.00404 µM in assay [10]. Also, the GI50 is 0.00339 µM in assay [2]; 0.0125 µM in assay [4]; 0.00145 µM in [5]; 0.0065 µM in assay [8]; 0.00522 µM in [10].
As to `COc1ccc(-c2nsc3c2NC(=O)CC3c2cccc(Cl)c2)cc1` (centres undefined), the GI50 in assay [1] was 2.37 µM; in assay [2] it was 7.62 µM; in [3], 3.3 µM; in assay [4] it was 5.22 µM; in [5], 1.22 µM; in assay [6], 1.74 µM. Besides, the GI50 is 1.09 µM in assay [7], 2.33 µM in assay [8], 6.59 µM in assay [9] and 2.31 µM in assay [10]. Further, the TGI in [1] was above 100 µM; in [2], above 100 µM; in [3], above 100 µM; in assay [4], above 100 µM; in assay [5], above 100 µM; in [6], above 29 µM. Moreover, the TGI in assay [7] was 33.6 µM; in [8], above 100 µM; in assay [9], above 100 µM; in assay [10], above 100 µM.
Regarding `S=C(CSc1ccccc1)Nc1cccc2ccccc12`, the TGI in [1] was above 100 µM; in [2], above 100 µM; in assay [3], above 100 µM; in assay [4] it was above 100 µM; in assay [5], above 100 µM; in [6], 88.7 µM. Besides, the TGI in assay [7], in [8], in assay [9] and in assay [10] was above 100 µM throughout.
For `Nc1nc2c(ccc3ccccc32)s1`, the GI50 in assay [1] is above 100 µM; in assay [2], above 100 µM; in [3], above 100 µM; in [4], 74.3 µM; in [5], above 100 µM; in [6], 43.4 µM. Besides, the GI50 in [7] was 19.3 µM; in [8], above 100 µM; in assay [9], 61.9 µM; in assay [10], 75.8 µM. In addition, the TGI in [1], in [2], in assay [3], in [4], in [5] and in [6] was above 100 µM each time. Also, the TGI is 85.2 µM in assay [7], above 100 µM in [8], above 100 µM in assay [9] and above 100 µM in assay [10].
